Where “and” joins values, the source holds several entries; their conditions need not be identical. Equal entries are not always repeated. Calls of active or inactive are those of the source. The rule behind the calls is not given here.
Legend:
[1] = biological target: cGMP-inhibited 3',5'-cyclic phosphodiesterase 3B (Homo sapiens, UniProt Q13370); assay: Inhibition of PDE3B
[2] = biological target: cGMP-dependent 3',5'-cyclic phosphodiesterase (Homo sapiens, UniProt O00408); assay: Inhibition of PDE2
[3] = Clearance in dog at 2 mg/kg, po and 2 mg/kg, iv; format: ADME, organism-based, Canis lupus familiaris; settings: in vivo
[4] = Half life in rat at 2 mg/kg, po and 2 mg/kg, iv; format: ADME, organism-based; settings: in vivo
[5] = biological target: High affinity cGMP-specific 3',5'-cyclic phosphodiesterase 9A (Homo sapiens, UniProt O76083); assay: Inhibition of PDE9
[6] = biological target: Dual specificity calcium/calmodulin-dependent 3',5'-cyclic nucleotide phosphodiesterase 1C (Homo sapiens, UniProt Q14123); assay: Inhibition of PDE1C
[7] = biological target: cGMP-specific 3',5'-cyclic phosphodiesterase (Homo sapiens, UniProt O76074); assay: Inhibition of PDE5
[8] = biological target: 3',5'-cyclic-AMP phosphodiesterase 4D (Homo sapiens, UniProt Q08499)
[9] = biological target: Dual specificity calcium/calmodulin-dependent 3',5'-cyclic nucleotide phosphodiesterase 1B (Homo sapiens, UniProt Q01064); assay: Inhibition of PDE1B
[10] = biological target: 3',5'-cyclic-AMP phosphodiesterase 7B (Homo sapiens, UniProt Q9NP56); assay: Inhibition of PDE7B
[11] = Half life in dog at 2 mg/kg, po and 2 mg/kg, iv; format: ADME, organism-based, Canis lupus familiaris; settings: in vivo
[12] = tested on: Rattus norvegicus; assay: Antihypertensive activity against telemeterized rat at 10 mg/kg, po; format: functional, organism-based; parameters: dose 10 mg/kg
[13] = Volume of distribution in dog at 2 mg/kg, iv and 2 mg/kg, po; format: ADME, organism-based, Canis lupus familiaris; settings: in vivo
[14] = biological target: Dual specificity calcium/calmodulin-dependent 3',5'-cyclic nucleotide phosphodiesterase 1A (Homo sapiens, UniProt P54750); assay: Inhibition of PDE1A
[15] = biological target: 3',5'-cyclic-AMP phosphodiesterase 4A (Homo sapiens, UniProt P27815); assay: Inhibition of PDE4A
[16] = biological target: 3',5'-cyclic-AMP phosphodiesterase 4B (Homo sapiens, UniProt Q07343); assay: Inhibition of PDE4B
[17] = Permeability from apical to basolateral side in human Caco-2 cells; format: ADME, cell-based; settings: read-out: permeability
[18] = biological target: High affinity cAMP-specific and IBMX-insensitive 3',5'-cyclic phosphodiesterase 8A (Homo sapiens, UniProt O60658); assay: Inhibition of PDE8A
[19] = biological target: Rod cGMP-specific 3',5'-cyclic phosphodiesterase subunit alpha (Homo sapiens, UniProt P16499); assay: Inhibition of PDE6
[20] = biological target: High affinity cAMP-specific and IBMX-insensitive 3',5'-cyclic phosphodiesterase 8B (Homo sapiens, UniProt O95263); assay: Inhibition of PDE8B
[21] = Oral bioavailability in rat at 2 mg/kg; format: ADME, organism-based; settings: in vivo
[22] = biological target: cGMP-inhibited 3',5'-cyclic phosphodiesterase 3A (Homo sapiens, UniProt Q14432); assay: Inhibition of PDE3A
[23] = species: Rattus norvegicus; assay: Unbound clearance in rat; format: ADME, organism-based; settings: in vivo
[24] = biological target: Dual 3',5'-cyclic-AMP and -GMP phosphodiesterase 11A (Homo sapiens, UniProt Q9HCR9); assay: Inhibition of PDE11
[25] = biological target: High affinity 3',5'-cyclic-AMP phosphodiesterase 7A (Homo sapiens, UniProt Q13946); assay: Inhibition of PDE7A
[26] = Clearance in rat at 2 mg/kg, po and 2 mg/kg, iv; format: ADME, organism-based; settings: in vivo
[27] = biological target: 3',5'-cyclic-AMP phosphodiesterase 4C (Homo sapiens, UniProt Q08493); assay: Inhibition of PDE4C
[28] = Oral bioavailability in dog at 2 mg/kg; format: ADME, organism-based, Canis lupus familiaris; settings: in vivo
[29] = species: Rattus norvegicus; assay: Unbound volume of distribution in rat; format: ADME, organism-based; settings: in vivo
[30] = Volume of distribution in rat at 2 mg/kg, iv and 2 mg/kg, po; format: ADME, organism-based; settings: in vivo
[31] = Half life in rat; format: ADME, organism-based; settings: in vivo
[32] = Clearance in rat; format: ADME, organism-based; settings: in vivo

Chain of 3',5'-cyclic-AMP phosphodiesterase 4B (Q07343 whole entry): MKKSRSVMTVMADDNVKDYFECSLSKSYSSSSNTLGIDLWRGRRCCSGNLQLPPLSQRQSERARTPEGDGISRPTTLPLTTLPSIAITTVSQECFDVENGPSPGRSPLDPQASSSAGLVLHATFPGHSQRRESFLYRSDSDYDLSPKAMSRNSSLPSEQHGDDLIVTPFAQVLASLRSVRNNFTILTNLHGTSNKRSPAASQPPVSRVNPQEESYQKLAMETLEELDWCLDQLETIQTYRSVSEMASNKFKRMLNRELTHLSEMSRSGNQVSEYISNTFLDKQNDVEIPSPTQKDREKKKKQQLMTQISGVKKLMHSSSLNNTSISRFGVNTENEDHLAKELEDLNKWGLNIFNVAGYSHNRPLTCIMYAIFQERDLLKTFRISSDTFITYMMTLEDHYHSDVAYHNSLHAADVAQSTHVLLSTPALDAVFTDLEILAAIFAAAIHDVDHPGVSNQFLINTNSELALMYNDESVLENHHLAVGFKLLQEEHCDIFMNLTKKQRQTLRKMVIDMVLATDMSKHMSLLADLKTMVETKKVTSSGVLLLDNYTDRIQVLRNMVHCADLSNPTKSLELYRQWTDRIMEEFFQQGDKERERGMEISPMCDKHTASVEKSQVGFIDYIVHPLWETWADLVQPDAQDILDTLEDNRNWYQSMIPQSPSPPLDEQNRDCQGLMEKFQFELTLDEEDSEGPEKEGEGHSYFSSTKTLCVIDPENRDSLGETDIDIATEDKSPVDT
Chain of Dual specificity calcium/calmodulin-dependent 3',5'-cyclic nucleotide phosphodiesterase 1B (Q01064 whole entry): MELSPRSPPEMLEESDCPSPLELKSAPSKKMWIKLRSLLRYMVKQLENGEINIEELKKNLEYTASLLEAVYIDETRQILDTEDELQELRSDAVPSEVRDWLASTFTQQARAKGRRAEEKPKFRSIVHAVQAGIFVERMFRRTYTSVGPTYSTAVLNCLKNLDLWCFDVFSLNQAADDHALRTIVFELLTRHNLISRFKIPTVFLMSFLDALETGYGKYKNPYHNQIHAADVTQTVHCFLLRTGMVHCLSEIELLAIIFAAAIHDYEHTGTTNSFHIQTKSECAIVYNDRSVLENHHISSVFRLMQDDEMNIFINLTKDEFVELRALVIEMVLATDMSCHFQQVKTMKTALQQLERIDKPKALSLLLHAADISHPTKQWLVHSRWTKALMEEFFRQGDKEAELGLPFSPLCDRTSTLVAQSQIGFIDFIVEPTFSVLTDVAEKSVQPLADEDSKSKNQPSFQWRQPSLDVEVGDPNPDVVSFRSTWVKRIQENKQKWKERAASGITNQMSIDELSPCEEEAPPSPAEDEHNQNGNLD
Chain of cGMP-inhibited 3',5'-cyclic phosphodiesterase 3B (Q13370 whole entry): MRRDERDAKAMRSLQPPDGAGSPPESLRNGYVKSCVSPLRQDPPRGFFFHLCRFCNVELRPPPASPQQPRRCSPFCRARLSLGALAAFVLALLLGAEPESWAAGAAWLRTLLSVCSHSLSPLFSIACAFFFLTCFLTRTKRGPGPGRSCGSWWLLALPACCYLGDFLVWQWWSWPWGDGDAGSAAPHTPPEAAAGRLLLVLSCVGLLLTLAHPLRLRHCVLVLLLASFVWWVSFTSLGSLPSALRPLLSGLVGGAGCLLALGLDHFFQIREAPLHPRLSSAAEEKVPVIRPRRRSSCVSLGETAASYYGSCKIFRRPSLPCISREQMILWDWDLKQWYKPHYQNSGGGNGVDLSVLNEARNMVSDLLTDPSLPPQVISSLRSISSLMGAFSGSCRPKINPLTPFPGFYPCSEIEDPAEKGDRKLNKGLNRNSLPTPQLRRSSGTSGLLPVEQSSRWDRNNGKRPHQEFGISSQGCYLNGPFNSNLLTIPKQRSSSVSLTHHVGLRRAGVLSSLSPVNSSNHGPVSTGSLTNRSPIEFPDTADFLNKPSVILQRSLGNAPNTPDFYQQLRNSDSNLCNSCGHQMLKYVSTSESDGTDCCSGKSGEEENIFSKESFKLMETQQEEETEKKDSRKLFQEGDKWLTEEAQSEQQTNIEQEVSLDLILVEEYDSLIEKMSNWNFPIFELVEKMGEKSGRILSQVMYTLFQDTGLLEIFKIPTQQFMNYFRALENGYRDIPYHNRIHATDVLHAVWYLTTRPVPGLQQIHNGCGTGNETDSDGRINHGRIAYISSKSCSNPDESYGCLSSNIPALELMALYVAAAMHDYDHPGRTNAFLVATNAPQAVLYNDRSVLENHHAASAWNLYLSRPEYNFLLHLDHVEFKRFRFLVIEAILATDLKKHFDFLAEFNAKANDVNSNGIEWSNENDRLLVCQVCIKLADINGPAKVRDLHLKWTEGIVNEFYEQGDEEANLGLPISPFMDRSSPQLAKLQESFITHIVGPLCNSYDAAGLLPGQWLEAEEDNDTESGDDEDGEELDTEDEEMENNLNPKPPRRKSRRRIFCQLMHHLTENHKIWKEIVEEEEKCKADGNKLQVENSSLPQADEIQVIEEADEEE
Chain of Dual specificity calcium/calmodulin-dependent 3',5'-cyclic nucleotide phosphodiesterase 1C (Q14123 whole entry): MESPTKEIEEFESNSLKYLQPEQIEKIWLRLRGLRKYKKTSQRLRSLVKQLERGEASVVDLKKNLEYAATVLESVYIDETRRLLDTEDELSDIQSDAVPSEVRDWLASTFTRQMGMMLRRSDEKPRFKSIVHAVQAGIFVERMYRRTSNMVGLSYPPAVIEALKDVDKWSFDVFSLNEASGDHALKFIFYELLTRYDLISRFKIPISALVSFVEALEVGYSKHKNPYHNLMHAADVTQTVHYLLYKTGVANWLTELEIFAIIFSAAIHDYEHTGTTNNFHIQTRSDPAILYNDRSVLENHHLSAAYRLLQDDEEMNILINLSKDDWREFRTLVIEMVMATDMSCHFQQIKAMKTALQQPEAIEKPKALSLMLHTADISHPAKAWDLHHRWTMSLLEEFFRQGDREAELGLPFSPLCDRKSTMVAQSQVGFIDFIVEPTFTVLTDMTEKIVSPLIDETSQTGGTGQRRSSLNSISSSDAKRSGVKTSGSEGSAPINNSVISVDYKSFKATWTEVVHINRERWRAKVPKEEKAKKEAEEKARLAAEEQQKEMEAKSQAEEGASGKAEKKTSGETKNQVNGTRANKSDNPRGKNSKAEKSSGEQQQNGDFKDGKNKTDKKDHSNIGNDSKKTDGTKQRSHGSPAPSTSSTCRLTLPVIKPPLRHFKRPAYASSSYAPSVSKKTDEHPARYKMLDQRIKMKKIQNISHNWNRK
Chain of Dual 3',5'-cyclic-AMP and -GMP phosphodiesterase 11A (Q9HCR9 whole entry): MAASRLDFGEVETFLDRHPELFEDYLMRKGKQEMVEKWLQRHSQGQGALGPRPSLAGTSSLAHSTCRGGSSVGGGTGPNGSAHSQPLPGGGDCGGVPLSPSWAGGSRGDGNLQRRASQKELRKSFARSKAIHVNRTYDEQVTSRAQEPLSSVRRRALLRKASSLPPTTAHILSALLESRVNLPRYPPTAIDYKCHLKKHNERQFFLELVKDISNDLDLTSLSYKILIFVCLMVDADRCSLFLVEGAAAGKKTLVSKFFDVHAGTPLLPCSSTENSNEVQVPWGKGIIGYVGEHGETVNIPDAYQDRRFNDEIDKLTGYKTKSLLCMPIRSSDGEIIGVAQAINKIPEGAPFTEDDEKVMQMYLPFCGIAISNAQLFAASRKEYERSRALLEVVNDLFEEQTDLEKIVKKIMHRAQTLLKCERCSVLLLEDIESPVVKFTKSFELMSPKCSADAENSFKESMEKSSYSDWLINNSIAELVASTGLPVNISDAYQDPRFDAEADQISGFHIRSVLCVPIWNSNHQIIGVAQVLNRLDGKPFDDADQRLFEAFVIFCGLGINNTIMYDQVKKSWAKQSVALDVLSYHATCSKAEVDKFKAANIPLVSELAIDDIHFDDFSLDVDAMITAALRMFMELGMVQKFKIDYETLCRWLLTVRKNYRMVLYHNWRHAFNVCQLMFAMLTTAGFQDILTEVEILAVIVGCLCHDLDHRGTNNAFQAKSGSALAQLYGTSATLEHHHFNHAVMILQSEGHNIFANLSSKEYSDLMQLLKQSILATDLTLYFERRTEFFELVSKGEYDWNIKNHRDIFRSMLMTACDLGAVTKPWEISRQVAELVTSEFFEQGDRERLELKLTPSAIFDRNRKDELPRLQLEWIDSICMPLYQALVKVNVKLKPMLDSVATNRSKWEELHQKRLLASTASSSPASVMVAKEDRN
Chain of cGMP-dependent 3',5'-cyclic phosphodiesterase (O00408 whole entry): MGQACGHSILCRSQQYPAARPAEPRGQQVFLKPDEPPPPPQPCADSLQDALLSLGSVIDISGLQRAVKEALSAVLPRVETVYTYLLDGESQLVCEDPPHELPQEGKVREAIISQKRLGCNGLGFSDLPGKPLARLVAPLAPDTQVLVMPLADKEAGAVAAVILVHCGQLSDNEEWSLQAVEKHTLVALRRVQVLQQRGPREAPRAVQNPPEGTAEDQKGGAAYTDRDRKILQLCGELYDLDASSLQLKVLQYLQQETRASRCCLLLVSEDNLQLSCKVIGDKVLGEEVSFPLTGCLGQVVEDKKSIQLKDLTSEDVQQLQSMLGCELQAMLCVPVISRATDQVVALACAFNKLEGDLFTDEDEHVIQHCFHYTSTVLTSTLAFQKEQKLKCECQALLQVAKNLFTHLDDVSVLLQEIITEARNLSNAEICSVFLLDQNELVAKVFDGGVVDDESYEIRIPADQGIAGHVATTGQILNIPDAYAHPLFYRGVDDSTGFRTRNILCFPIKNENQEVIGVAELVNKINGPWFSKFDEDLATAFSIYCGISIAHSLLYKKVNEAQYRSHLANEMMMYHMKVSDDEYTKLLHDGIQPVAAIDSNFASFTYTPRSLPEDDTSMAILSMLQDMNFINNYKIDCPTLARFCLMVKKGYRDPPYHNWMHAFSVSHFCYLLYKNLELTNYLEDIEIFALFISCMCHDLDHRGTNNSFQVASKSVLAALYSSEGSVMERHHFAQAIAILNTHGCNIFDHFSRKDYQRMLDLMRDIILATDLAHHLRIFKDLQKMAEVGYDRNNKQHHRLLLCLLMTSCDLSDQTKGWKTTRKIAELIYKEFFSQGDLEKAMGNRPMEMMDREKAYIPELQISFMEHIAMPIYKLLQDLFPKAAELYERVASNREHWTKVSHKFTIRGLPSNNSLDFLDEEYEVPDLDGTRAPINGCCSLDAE

IC50 [1] [nM] | IC50 [2] [nM] | IC50 [5] [nM] | IC50 [6] [nM] | IC50 [9] [nM] | IC50 [10] [nM] | IC50 [14] [nM] | IC50 [15] [nM] | IC50 [16] | IC50 [18] [nM] | IC50 [19] [nM] | IC50 [20] [nM] | IC50 [22] [nM] | IC50 [24] [nM] | IC50 [25] [nM] | IC50 [27] [nM] | Structure (SMILES) | Activity [12] | further results
> 2000 | > 2000 | > 2000 | > 2000 | > 2000 | > 2000 | > 2000 | > 2000 | > 2000 nM and 290 nM | > 2000 | 9.8 | > 2000 | > 2000 | 64.1 | > 2000 | > 2000 | CCCOCCn1c(=O)c(N[C@H]2CC[C@H](O)CC2)nc2cnc(-c3ccc(OC)nc3)cc21 | Active | clearance [3]: 3.5 mL/min/kg; half-life [4]: 4.1 h; IC50 [7]: 0.05 nM; IC50 [8]: 1210 nM; half-life [11]: 17.6 h; Vd [13]: 3.7 L/kg; Papp A→B [17]: 34 ×10⁻⁶ cm/s; bioavailability [21]: 50%; CL free [23]: 400 mL/min/kg; clearance [26]: 5.5 mL/min/kg; bioavailability [28]: 75%; Vdu [29]: 100 L/kg; Vd [30]: 1.4 L/kg
> 2000 | > 2000 | > 2000 | > 2000 | > 2000 | > 2000 | > 2000 | > 2000 | > 2000 nM | > 2000 | 11.3 | > 2000 | > 2000 | 346 | > 2000 | > 2000 | CCCOCCn1c(=O)c(NCCN2CCOCC2)nc2cnc(-c3ccc(OC)nc3)cc21 | Active | half-life [31]: 0.8 h; clearance [32]: 33 mL/min/kg

From ChEMBL document CHEMBL1155301, “Optimization of the aminopyridopyrazinones class of PDE5 inhibitors: discovery of 3-[(trans-4-hydroxycyclohexyl)amino]-7-(6-methoxypyridin-3-yl)-1-(2-propoxyethyl)pyrido[3,4-b]pyrazin-2(1H)-one” (Bioorg Med Chem Lett, 2009)
